Assay results from patent US10047084B2, “Imidazolone derivatives, pharmaceutical compositions and uses thereof” (BEIJING FORELANDPHARMA CO. LTD., priority 2013, dated 2018).

Assays:
PC-3 = experiment: CTG cell survival assay, PC-3; assay type: cell-based; conditions: Homo sapiens, PC-3 cells
Excerpt: (§1) 2. CTG Cell Survival Assay:
(§2) ATP is necessarily produced during the metabolic activities of viable cells, and there is a linear relationship between the content of ATP and the number of viable cells. Cell viability assay by CTG chemiluminescence is a general method for detecting the number of viable cells in the culture cells based on this principle. The addition of the CellTiter-Glo (CTG) reagent may induce cell lysis and produce chemiluminescent signals directly proportional to the amount of ATP in the well-plate, and thereby the cell proliferation activity in the well-plate can be measured by the reading values from the chemiluminescence.
(§3) 2.1 Experimental Materials and Instruments:
(§4) 2.4 Experimental Procedure: • 1.4.1 Cell Thawing: Cryogenic vials were removed from the liquid nitrogen container, directly immersed in a water bath at 37° C., and shaked from time to time to thaw. The cryogenic vials were removed from the water bath at 37° C., and transferred to the biosafe cabinet. Their lids were opened, and the cell suspensions were aspirated with pipettes, added to centrifuge tubes, and then added with more than 10 volumes of culture solution, mixed well; centrifuged for 5 min at 1000 rpm; the supernatant was discarded, and medium containing cell growth was added to resuspend cells. All cell suspensions were seeded to the T25 culture flasks and static cultured in an incubator at 37° C.; the culture solution were changed once on the next day, and continued to be cultured. • 2.4.2 Cell Passaging: After cells were grown to logarithmic phase and were 80%-90% confluent, cells were removed and placed in the biosafe cabinet, the old culture solution was discarded, and the cells were wetted and washed with PBS once or twice. An appropriate amount of 0.25% Trypsin-EDTA solution was added to the culture flasks. The flasks were placed in the carbon dioxide incubator at 37° C. for 2-5 min. An appropriate amount of cell growth medium containing 10% PBS was added to terminate the digestion, lightly swished, and transferred to the centrifuge tubes and centrifuged for 5 min at 1000 rpm. The cells were prepare (into cell suspensions for passaging and experimental use. • 2.4.3 Cell Plating • 2.4.3.1 A cell suspension was prepared: After cells were grown to logarithmic phase and were 80%-90% confluent, the cells were removed to the biosafe cabinet, and the old culture solution was discarded, then the cells were wetted and washed with PBS once or twice. An appropriate amount of 0.25% Trypsin-EDTA solution was added to the culture flask. The flask was placed in a carbon dioxide incubator at 37° C. for 2-5 min. An appropriate amount of the cell growth medium containing 10% PBS was added to terminate digestion, and was lightly swished. The solution was transferred to a centrifuge tube, centrifuged for 5 min at 1000 rpm, and counted. […] Secondly, 20 uM of the compound to be tested was diluted with the cell growth medium containing 0.2% DMSO in 3-fold dilution to obtain 9 concentrations, and there were 10 concentration gradients in total. • 2.4.4.3 Addition of the compounds to be tested: the prepared gradient dilution solutions of compounds to be tested were taken and added to the cell culture plate at 100 ul/well; at this point, the maximum concentration of compounds to be tested was 10 uM, and the concentration of DMSO was 0.1%.

mTOR kinase = mTOR kinase (Homo sapiens (Human), UniProt P42345); experiment: mTOR kinase activity assay (TR-FRET, GFP-4EBP1 substrate); assay type: biochemical; conditions: read-out: Enzyme (mTOR) IC50
Chain of mTOR kinase (P42345 1360-2549): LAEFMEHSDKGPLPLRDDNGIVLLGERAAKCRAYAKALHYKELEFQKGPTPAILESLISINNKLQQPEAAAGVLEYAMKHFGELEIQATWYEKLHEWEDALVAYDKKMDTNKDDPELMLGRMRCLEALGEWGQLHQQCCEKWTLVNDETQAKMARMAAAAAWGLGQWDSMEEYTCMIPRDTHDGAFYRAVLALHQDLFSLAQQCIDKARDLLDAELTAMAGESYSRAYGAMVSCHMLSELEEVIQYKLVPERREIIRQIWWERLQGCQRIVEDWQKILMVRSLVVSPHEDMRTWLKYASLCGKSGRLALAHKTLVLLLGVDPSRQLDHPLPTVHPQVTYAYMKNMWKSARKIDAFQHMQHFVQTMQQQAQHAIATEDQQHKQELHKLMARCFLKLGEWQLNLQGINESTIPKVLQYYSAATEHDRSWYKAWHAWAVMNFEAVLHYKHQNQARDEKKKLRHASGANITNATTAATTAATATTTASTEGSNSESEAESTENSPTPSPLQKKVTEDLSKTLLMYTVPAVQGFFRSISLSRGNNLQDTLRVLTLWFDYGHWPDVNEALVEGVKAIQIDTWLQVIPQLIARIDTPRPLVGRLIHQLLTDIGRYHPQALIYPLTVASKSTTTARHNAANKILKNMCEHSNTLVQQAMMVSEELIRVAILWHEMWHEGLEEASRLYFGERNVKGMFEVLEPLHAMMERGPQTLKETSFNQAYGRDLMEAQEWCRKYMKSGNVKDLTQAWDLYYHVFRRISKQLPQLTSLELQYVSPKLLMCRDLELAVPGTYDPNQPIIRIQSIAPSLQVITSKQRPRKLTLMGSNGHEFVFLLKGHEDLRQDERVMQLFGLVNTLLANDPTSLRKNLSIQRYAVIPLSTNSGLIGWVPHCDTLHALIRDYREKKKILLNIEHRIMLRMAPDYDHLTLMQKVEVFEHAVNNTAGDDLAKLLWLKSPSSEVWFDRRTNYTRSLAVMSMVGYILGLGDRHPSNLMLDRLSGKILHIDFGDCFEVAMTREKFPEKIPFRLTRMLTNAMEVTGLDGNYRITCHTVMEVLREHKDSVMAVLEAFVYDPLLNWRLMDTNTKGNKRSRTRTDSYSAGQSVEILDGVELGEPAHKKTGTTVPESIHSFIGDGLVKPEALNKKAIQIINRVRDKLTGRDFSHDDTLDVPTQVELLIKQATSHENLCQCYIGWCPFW
Description: 1. mTOR Kinase Activity Assay: The inhibition of the mTOR protein kinase activity by the compounds was determined by the enzymatic activity assay in vitro. The detection kit supplied by Invitrogen was used to detect the inhibition of the activity of the mTOR […]. The principle of the assay was as follows: mTOR kinase, fluorescein-labeled substrate and ATP were mixed, and after the reaction, EDTA and terbium-labeled first antibody were added. During the chemical reaction process of the mTOR kinase, the antibody recognized the phosphorylated and fluorescein-labeled substrate, and then the “time-resolved fluorescence resonance energy transfer” (TR-FRET) effect was enhanced. TR-FRET effect was calculated as the ratio of signals from the acceptor fluorescein to signals from the donor terbium. The amount of the antibody bound to the tracer was directly proportional to the amount of the phosphorylated substrate after the reaction. In this way, the kinase activity can be detected. In this assay, the substrate of the mTOR kinase was green fluorescent protein-coupled 4E binding protein 1 (GFP-4EBP1).
1.1 Materials and Instruments:
4-Hydroxyethylpiperazine ethanesulfonic acid (HEPES, Sigma, Cat# SH3375), ethylene glycol-bis-(2-aminoethylether)-tetraacetic acid (EGTA, Sigma, Cat# E3889), manganese chloride (MnCl2, Sigma, Cat# M1787), Tween-20 (Tween-20, Amresco), 1,4-dithiothreitol (DTT, Merck, CB233155),

SK-BR3/BT474 = experiment: CTG cell survival assay, SK-BR3/BT474; assay type: cell-based; conditions: SK-BR3/BT474 cells
Excerpt: as §1, §2, §3, §4

MV-4-11 = experiment: CTG cell survival assay, MV-4-11; assay type: cell-based; conditions: Homo sapiens, MV4-11, MV-4-11 cells
Excerpt: as §1, §2, §3
2.1.1 Experimental Materials: compounds to be tested, cell basal culture medium, RPMI Medium 1640 (Invitrogen, Cat#11875-093), fetal calf serum (FBS): Hyclone FETAL BOVINE SERUM DEFINED (Invitrogen, Cat#SH30070.03), antibiotics: Penicilin Streptomycin (Invitrogen, Cat#15140-122), phosphate buffer (Corning Cellgro, Cat#R21-040-CV), cell digestive solution: 0.25% Trypsin-EDTA (Invitrogen, Cat#25200-056), CTG detection kit: Promega, Cat#G7571, flat-bottom 96-well black bottom plate: NUNC, Cat#165305, T25 culture flask: NUNC, Cat#156367, T75 culture flask: NUNC, Cat#156439
2.2 Experimental Instruments: Carbon Dioxide Incubator, SANYO-MCO-20AIC, Biosafe Cabinet: BSC-1360-LIIA2, Table-Top High-Speed Refrigerated Centrifuge: SorvallST 16R, Microplate Rapid Oscillator: QB-9001, M3 Reader: SpectraMax M3, Microscope: OLYMPUS-CKX41/CKX31.
2.3 Preparation of Solutions and Reagents: Formulation of cell growth medium: RPMI Medium 1640+10% FBS+antibiotics, others: trypsin digestive solution, phosphate buffer (PBS), DMSO, CTG detection kit.
2.4 Experimental Procedure: • 1.4.1 Cell Thawing: Cryogenic vials were removed from the liquid nitrogen container, directly immersed in a water bath at 37° C., and shaked from time to time to thaw. The cryogenic vials were removed from the water bath at 37° C., and transferred to the biosafe cabinet. Their lids were opened, and the cell suspensions were aspirated with pipettes, added to centrifuge tubes, and then added with more than 10 volumes of culture solution, mixed well; centrifuged for 5 min at 1000 rpm; the supernatant was discarded, and medium containing cell growth was added to resuspend cells. All cell suspensions were seeded to the T25 culture flasks and static cultured in an incubator at 37° C.; the culture solution were changed once on the next day, and continued to be cultured. • 2.4.2 Cell Passaging: After cells were grown to logarithmic phase and were 80%-90% confluent, cells were removed and placed in the biosafe cabinet, the old culture solution was discarded, and the cells were wetted and washed with PBS once or twice. An appropriate amount of 0.25% Trypsin-EDTA solution was added to the culture flasks. The flasks were placed in the carbon dioxide incubator at 37° C. for 2-5 min. An appropriate amount of cell growth medium containing 10% PBS was added to terminate the digestion, lightly swished, and transferred to the centrifuge tubes and centrifuged for 5 min at 1000 rpm. The cells were prepare (into cell suspensions for passaging and experimental use. • 2.4.3 Cell Plating • 2.4.3.1 A cell suspension was prepared: After cells were grown to logarithmic phase and were 80%-90% confluent, the cells were removed to the biosafe cabinet, and the old culture solution was discarded, then the cells were wetted and washed with PBS once or twice. An appropriate amount of 0.25% Trypsin-EDTA solution was added to the culture flask. The flask was placed in a carbon dioxide incubator at 37° C. for 2-5 min. An appropriate amount of the cell growth medium containing 10% PBS was added to terminate digestion, and was lightly swished. The solution was transferred to a centrifuge tube, centrifuged for 5 min at 1000 rpm, and counted. […]

SMILES | EC50 (PC-3) | IC50 (mTOR kinase) | EC50 (SK-BR3/BT474) | EC50 (MV-4-11)
Cn1c(=O)n([C@H]2CCN(S(C)(=O)=O)C2)c2c3nc(-c4ccc(-c5ccccc5)nc4)ccc3ncc21 [Example 39, (S)-3-methyl-1-(1-(methanesulfonyl)pyrrolidin-3-yl)-8-(6-phenylpyridin-3-yl)-1H-imidazo[4,5-c][1,5]naphthyridin-2(3H)-one] | 37 nM | < 10 nM | – | –
Cc1ccc(S(=O)(=O)N2CCC(n3c(=O)n(C)c4cnc5ccc(-c6ccc(-c7cnn(C)c7)nc6)cc5c43)C2)cc1 (stereo not shown) [Example 14, 3-methyl-8-(6-(1-methyl-1H-pyrazol-4-yl)pyridin-3-yl)-1-(1-p-toluenesulfonylpyrrolidin-3-yl)-1H-imidazo[4,5-c]quinolin-2(3H)-one] | < 1000 nM | 100 to 1000 nM | < 200 nM | –
Cn1cc(-c2ccc(-c3ccc4ncc5c(c4c3)n(C3CCN(C(=O)C(F)(F)F)C3)c(=O)n5C)cn2)cn1 (stereo not shown) [Example 16, 3-methyl-8-(6-(1-methyl-1H-pyrazol-4-yl)pyridin-3-yl)-1-(1-(2,2,2-trifluoroacetyl)pyrrolidin-3-yl)-1H-imidazo[4,5-c]quinolin-2(3H)-one] | < 1000 nM | 100 to 1000 nM | – | –
Cn1cc(-c2ccc(-c3ccc4ncc5c(c4c3)n(C3CCN(S(N)(=O)=O)C3)c(=O)n5C)cn2)cn1 (stereo not shown) [Example 15, 3-(3-methyl-8-(6-(1-methyl-1H-pyrazol-4-yl)pyridin-3-yl)-2-oxo-2,3-dihydro-1H-imidazo[4,5-c]quinolin-1-yl)pyrrolidine-1-sulfamide] | < 500 nM | 100 to 1000 nM | < 1000 nM | –
CCS(=O)(=O)N1CC[C@H](n2c(=O)n(C)c3cnc4ccc(-c5ccc(-c6cnn(C)c6)nc5)cc4c32)C1 [Example 29, (S)-1-(1-(ethylsulfonyl)pyrrolidin-3-yl)-3-methyl-8-(6-(1-methyl-1H-pyrazol-4-yl)pyridin-3-yl)-1H-imidazo[4,5-c]quinolin-2(3H)-one] | – | < 10 nM | < 100 nM | < 100 nM
Cn1c(=O)n([C@H]2CC[C@@H](O)CC2)c2c3cc(-c4ccc(N)nc4)ccc3ncc21 [Example 26, 8-(6-aminopyridin-3-yl)1-((1s,4s)-4-hydroxycyclohexyl)-3-methyl-1H-imidazo[4,5-c]quinolin-2(3H)-one] | – | < 10 nM | < 200 nM | < 50 nM
Cn1cc(-c2ccc(-c3ccc4ncc5c(c4c3)n(C3CCCN(C(=O)c4nc[nH]n4)C3)c(=O)n5C)cn2)cn1 (stereo not shown) [Example 2, 1-(1-(1H-1,2,4-triazole-3-carbonyl)piperidin-3-yl)-3-methyl-8-(6-(1-methyl-1H-pyrazol-4-yl)pyridin-3-yl)-1H-imidazo[4,5-c]quinolin-2(3H)-one] | – | 100 to 1000 nM | – | –
Cn1cc(-c2ccc(-c3ccc4ncc5c(c4c3)n(C3CCN(C(=O)CO)C3)c(=O)n5C)cn2)cn1 (stereo not shown) [Example 7, 1-(1-(2-hydroxyacetyl)pyrrolidin-3-yl)-3-methyl-8-(6-(1-methyl-1H-pyrazol-4-yl)pyridin-3-yl)-1H-imidazo[4,5-c]quinolin-2(3H)-one] | < 1000 nM | 100 to 1000 nM | < 1000 nM | –
Cn1cc(-c2ccc(-c3ccc4ncc5c(c4c3)n(C3CCN(S(=O)(=O)c4ccc(Cl)cc4)C3)c(=O)n5C)cn2)cn1 (stereo not shown) [Example 13, 1-(1-((4-chlorphenyl)sulfonyl)pyrrolidin-3-yl)-3-methyl-8-(6-(1-methyl-1H-pyrazol-4-yl)pyridin-3-yl)-1H-imidazo[4,5-c]quinolin-2(3H)-one] | < 1000 nM | 100 to 1000 nM | < 500 nM | –
Cn1cc(-c2ccc(-c3ccc4ncc5c(c4n3)n([C@H]3CCN(S(C)(=O)=O)C3)c(=O)n5C)cn2)cn1 [Example 38, (S)-3-methyl-8-(6-(1-methyl-1H-pyrazol-4-yl)pyridin-3-yl)-1-(1-(methanesulfonyl)pyrrolidin-3-yl)-1H-imidazol-[4,5-c][1,5]naphthyridin-2(3H)-one] | 21 nM | < 10 nM | – | –
CC(=O)N1CCC(n2c(=O)n(C)c3cnc4ccc(-c5ccc(-c6cnn(C)c6)nc5)cc4c32)C1 (stereo not shown) [Example 11, 1-(1-acetylpyrrolidin-3-yl)-3-methyl-8-(6-(1-methyl-1H-pyrazol-4-yl)pyridin-3-yl)-1H-imidazo[4,5-c]quinolin-2(3H)-one] | < 1000 nM | 100 to 1000 nM | < 1000 nM | –
Cn1cc(-c2ccc(-c3ccc4ncc5c(c4c3)n(C3CCN(S(C)(=O)=O)CC3)c(=O)n5C)cn2)cn1 [Example 59, 3-methyl-8-(6-(1-methyl-1H-pyrazol-4-yl)pyridin-3-yl)-1-(1-(methanesulfonyl)piperidin-4-yl)-1H-imidazo[4,5-c]quinolin-2(3H)-one] | 30 nM | – | < 100 nM | 100 nM
